How the values were obtained:
Assay type in all cases: in vivo, human
[1] = Fasting blood laboratory analysis (cholesterol, triglycerides, glucose); conditions: Example 1, n=25, 10 mg daily, mean ± SEM
Description: All subjects underwent clinical examination, blood pressure measurements ([…] automated sphygmomanometer) and ultrasound measurement of flow-mediated dilatation of brachial artery (FMD), pulse-wave velocity (PWV) and β-stiffness of carotid artery at inclusion (0th day) and after 1 month (30th day) of the study. Fasting blood samples were taken at the beginning and at the end of the study for laboratory analysis. Blood glucose, electrolytes and cholesterol were obtained using the VITRO 5.1 FS Chemical system (Ortho Clinical Diagnostics, Inc.).

[2] = test system: right common carotid artery; assay: Ultrasound measurement of pulse-wave velocity (PWV); conditions: for PWV, after treatment: after 1 month (30 days) treatment; for PWV, improvement: after 1 month vs before treatment
Procedure: (§1) Fifty apparently healthy male individuals (42.6±1.9 years) were recruited in double blind, randomized study. Inclusion criteria were: The control group (n=25) received placebo, while the test group (n=25) received subtherapeutic daily dose of fluvastatin sodium-10 mg daily (the recommended therapeutic daily dose is 40 to 80 mg) during a period of 1 month-30 days. All subjects underwent clinical examination, blood pressure measurements ([…] automated sphygmomanometer) and ultrasound measurement of flow-mediated dilatation of brachial artery (FMD), pulse-wave velocity (PWV) and β-stiffness of carotid artery at inclusion (0th day) and after 1 month (30th day) of the study. Fasting blood samples were taken at the beginning and at the end of the study for laboratory analysis. Blood glucose, electrolytes and cholesterol were obtained using the VITRO 5.1 FS Chemical system (Ortho Clinical Diagnostics, Inc.). The measurements of PWV and β-stiffness were performed on the right common carotid artery. The Aloka ultrasound device was also equipped with special software for automatic determination of the PWV and beta-stiffness through the analysis of pulse waves (Carerj S et al. Normal vascular aging evaluated by a new tool: e-tracking. Eur J Echocardiography 2006; suppl: S 49). All values were expressed as arithmetic mean±SEM and were normally distributed. Differences between values recorded at the beginning (0th day) and at the end of the study (30th day) were determined by one-way analysis of variance (ANOVA). When a significant interaction was present, the Bonferroni post-test was performed. […] All statistical analyses were performed using Graph Pad Prism 5.0 software.

[3] = test system: arterial wall; assay: "Biological" arterial age according to age-related normogram
Description: It is important to emphasize that there is a similarity between the terms morphological or structural which are used to describe the same characteristics by different authors but basically disclose the same characteristics of arterial wall. All three above mentioned methods FMD, PWV, and β-stiffness are standard in the art and generally widely accepted methods for estimation of functional or morphological characteristics of arteries. When administering the pharmaceutical composition according to the present invention the significant and unexpected improvement in all above mentioned characteristics are observed. Furthermore, by using age-related normogram obtained on large sample of apparently healthy subjects—who have a low cardiovascular risk as defined above—the estimation of “biological” arterial age can be determined. […] By using age-related normogram (according to the methods described in Jurasic M J et al. Beta stiffness—setting age standards. Acta Clin Croat 2009; 48:253-8; and Carerj S. Normal vascular ageing evaluated by a new tool: e-tracking. Eur J Echocardiography 2006; suppl 1:S49. Carerj S et al. Eur J Echocardiography 2006; suppl: S 49) the “biological” arterial age in participants according to Example 1 after 1 month of treatment and according to Example 2 after 5, 7 and 8 months after discontinuation of treatment was calculated (FIG. 3).

[4] = test system: right common carotid artery; assay: Ultrasound measurement of β-stiffness of carotid artery; conditions: for β-stiffness, residual improvement in % of effect achieved after 1 month of treatment: Example 2
Procedure: as §1

[5] = Example 1 study, 10 mg, after 30 days of treatment
[6] = Example 2, rest period 5 months
[7] = Example 2, rest period 8 months
[8] = Example 4, 10 mg daily, after 1 month treatment period
[9] = Example 1, 10 mg daily, after 1 month vs before treatment
[10] = Example 1, 10 mg daily, before treatment

Compound CC(C)n1c(/C=C/C(O)CC(O)CC(=O)O)c(-c2ccc(F)cc2)c2ccccc21 (stereo not shown) [Fluvastatin sodium, fluvastatin sodium] has an HDL cholesterol ([1]; 1st day (baseline)) of 1.2 ± 0.1 mmol/L, an LDL cholesterol ([1]; 1st day (baseline)) of 3.7 ± 0.2 mmol/L and a Total cholesterol ([1]; 1st day (baseline)) of 5.7 ± 0.2 mmol/L. For the same compound, the Triglycerides ([1]; 1st day (baseline)) was 1.6 ± 0.2 mmol/L, the HDL cholesterol ([1]; 30th day) was 1.2 ± 0.1 mmol/L and the LDL cholesterol ([1]; 30th day) was 3.6 ± 0.2 mmol/L. For the same compound, the Total cholesterol ([1]; 30th day) was 5.4 ± 0.2 mmol/L, the Triglycerides ([1]; 30th day) was 1.6 ± 0.3 mmol/L and the “PWV, after treatment” value ([2]; Example 1, 10 mg daily) was 5.41 m/s. The “PWV, improvement” value ([2]; Example 1, 10 mg daily) was −6.4%, the “PWV, before treatment” value ([2]; Example 1, 10 mg daily) was 5.76 m/s and the “PWV decreased by” value [2, 5] was 6.4%. The “PWV, residual improvement in % of effect achieved after 1 month of treatment” value (“PWV, residual improvement in %” for short) [2, 6] was 29.7%, the “PWV, residual improvement in %” value ([2]; Example 2, rest period 7 months) was 10% and the “PWV, residual improvement in %” value [2, 7] was 1.9%. For the same compound, the “PWV decreased by” value [2, 8] was 10.4%, the “PWV, after treatment” value ([2]; Example 4, 10 mg daily) was 5.00 m/s and the “PWV, improvement” value ([2]; Example 4, 10 mg daily) was −10.4%. The “PWV, before treatment” value ([2]; Example 4, 10 mg daily) was 5.52 m/s, the “PWV, residual improvement in %” value ([2]; Example 5, rest period 3 months) was 55.2% and the “PWV, residual improvement in %” value ([2]; Example 5, rest period 5 months) was 30.1%. The “PWV, residual improvement in %” value ([2]; Example 5, rest period 8 months) was 5.2%, the PWV ([2]; Example 6, ten participants, 10 mg daily, 1. intervention, before) was 5.5 ± 0.4 m/s and the PWV ([2]; Example 6, 1. intervention, after 1 month of treatment) was 5.1 ± 0.4 m/s. The PWV ([2]; Example 6, 2. intervention (repetition), after 1 month of treatment) was 5.3 ± 0.3 m/s, the PWV ([2]; Example 6, 2. intervention (repetition), before, after rest period of 12 months) was 5.6 ± 0.3 m/s and the “Arterial age according to age normogram, after treatment” value ([3]; Example 1, 10 mg daily, after 1 month treatment) was 38.2 years. The “Arterial age according to age normogram, improvement” value [3, 9] was −6.8 years, the “Arterial age according to age normogram, before treatment” value [3, 10] was 45.0 years and the “Arterial age according to age-related normogram” value [3, 6] was 42.3 years. For the same compound, the “Arterial age according to age-related normogram, difference (in brackets) to before treatment” value [3, 6] was −2.7 years, the “Arterial age according to age-related normogram, difference (in brackets) to before treatment” value [3, 7] was −0.5 years and the “β-stiffness, after treatment” value ([4]; Example 1, 10 mg daily, after 1 month (30 days) treatment) was 6.40 U. The “β-stiffness, improvement” value [4, 9] was −10.9%, the “β-stiffness, before treatment” value [4, 10] was 7.10 U and the “β-stiffness decreased by” value [4, 5] was 10.9%. For the same compound, the “β-stiffness, residual improvement in % of effect achieved after 1 month of treatment” value (from here on “β-stiffness, residual improvement in %”) ([4]; rest period 5 months) was 30.4%, the “β-stiffness, residual improvement in %” value ([4]; rest period 7 months) was 9% and the “β-stiffness, residual improvement in %” value ([4]; rest period 8 months) was 0.9%. The “β-stiffness of the carotid artery decreased by” value [4, 8] was 12.7%.
